Data set [1] concerns the target T1, RNA-binding protein pos-1 (Caenorhabditis elegans, UniProt G5EF15).
T1 sequence (G5EF15 whole entry): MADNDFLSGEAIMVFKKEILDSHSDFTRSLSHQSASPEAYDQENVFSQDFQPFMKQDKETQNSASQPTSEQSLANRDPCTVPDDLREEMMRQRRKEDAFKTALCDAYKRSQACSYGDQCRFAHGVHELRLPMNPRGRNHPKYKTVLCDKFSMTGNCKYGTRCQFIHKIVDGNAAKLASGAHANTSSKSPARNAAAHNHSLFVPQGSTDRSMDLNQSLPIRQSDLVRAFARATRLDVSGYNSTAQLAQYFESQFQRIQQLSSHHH
Description: disruptors of C. elegans POS-1 RNA interaction – biochemical, fluorescence polarization, dose response (AID 1964).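 Further: purified POS-1 fused to maltose binding protein made in E. coli; potency of compounds blocking POS-1 binding to fluorescent RNA.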 A general note: In fluorescence polarisation assays a small probe gives low polarisation when free and higher when bound to something large.

Data set [2] addresses T2, Zinc finger protein mex-5 (Caenorhabditis elegans, UniProt Q9XUB2).
T2 sequence (Q9XUB2 whole entry): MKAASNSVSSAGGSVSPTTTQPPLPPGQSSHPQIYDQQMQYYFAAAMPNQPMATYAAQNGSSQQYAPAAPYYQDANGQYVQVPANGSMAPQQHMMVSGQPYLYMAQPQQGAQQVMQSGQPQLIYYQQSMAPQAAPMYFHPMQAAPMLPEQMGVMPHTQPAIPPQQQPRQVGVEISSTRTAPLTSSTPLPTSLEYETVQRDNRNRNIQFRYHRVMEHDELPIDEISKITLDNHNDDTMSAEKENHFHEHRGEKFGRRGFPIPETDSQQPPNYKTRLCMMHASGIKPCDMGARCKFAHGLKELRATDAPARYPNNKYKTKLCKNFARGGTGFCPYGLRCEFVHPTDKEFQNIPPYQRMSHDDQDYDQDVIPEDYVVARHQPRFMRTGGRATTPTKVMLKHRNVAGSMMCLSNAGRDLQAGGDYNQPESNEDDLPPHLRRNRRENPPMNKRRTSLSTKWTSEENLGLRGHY
Description: potency of MEX-5 RNA-binding blockers – biochemical, C. elegans, fluorescence polarization, dose response (AID 1960).

The nature of data set [3]: Trypanosoma cruzi growth suppression in host cells – NIH3T3 host cells, beta-gal luminescence, confirmation (AID 2044).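 Further: intracellular parasites grown in NIH/3T3 mouse fibroblasts as host cells; luminescent beta-galactosidase reporter signal from transgenic T. cruzi replicating inside host cells; inhibitors lower the luminescence signal.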 The data set is classed as functional, cell-based.
Data set [4] can be described thus: NIH3T3 cell viability loss – ATP luminescence, mouse fibroblasts, counter-screen, dose response (AID 2010).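 Further: cells exposed to compound for about 90 hours before reading.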 The data set is classed as functional, cell-based. A general note: A counterscreen serves to expose hits that act by an unwanted route or on another target.
Data set [5] concerns the target T3, Intestinal-type alkaline phosphatase (Mus musculus, UniProt P24822). Description: PubChem AID 488874. The data set is classed as functional.
Data set [6] has as its target T4, Intestinal-type alkaline phosphatase (Homo sapiens, UniProt P09923). Description: inhibition of human intestinal alkaline phosphatase – biochemical, luminescent, uHTS hits, set 2, dose response (AID 488793). The data set is classed as functional.
Data set [7] deals with T4, Intestinal-type alkaline phosphatase. Put plainly: Dose Response confirmation of uHTS hits from a small molecule inhibitors of human intestinal alkaline phosphatase via a luminescent assay. [Related pubchem assays (depositor defined):AID2544, AID2574]. The data set is classed as functional.
For data set [8], the target named is T5, Alkaline phosphatase, tissue-nonspecific isozyme (Homo sapiens, UniProt P05186).
T5 sequence (P05186 whole entry): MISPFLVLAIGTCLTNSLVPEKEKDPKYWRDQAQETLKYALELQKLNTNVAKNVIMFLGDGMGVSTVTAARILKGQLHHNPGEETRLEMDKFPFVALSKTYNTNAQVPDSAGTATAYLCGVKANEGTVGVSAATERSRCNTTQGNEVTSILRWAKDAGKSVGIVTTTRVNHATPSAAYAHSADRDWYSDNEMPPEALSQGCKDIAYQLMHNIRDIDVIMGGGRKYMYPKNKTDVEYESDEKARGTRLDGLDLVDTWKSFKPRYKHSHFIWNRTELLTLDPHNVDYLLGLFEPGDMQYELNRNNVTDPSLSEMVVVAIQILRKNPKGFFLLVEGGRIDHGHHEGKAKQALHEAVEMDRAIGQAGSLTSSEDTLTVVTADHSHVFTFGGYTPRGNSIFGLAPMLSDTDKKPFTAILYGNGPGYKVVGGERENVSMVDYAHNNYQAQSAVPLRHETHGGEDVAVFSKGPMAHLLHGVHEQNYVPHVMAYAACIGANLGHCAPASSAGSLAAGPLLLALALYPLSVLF
Description: inhibition of tissue-nonspecific alkaline phosphatase – biochemical, dose response (AID 488882). The data set is classed as functional.

In the next data set the test system is INS1. Put plainly: INS-1E survival protection against cytokine death – cell-based, luminescence, retest, dose response (AID 449756).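 Further: cell death triggered by IL-1 beta plus TNF-alpha plus IFN-gamma mixture; protective hits raise ATP signal compared with cytokine alone wells.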 The data set is classed as functional. Conditions: Rattus norvegicus.
Data set [9] has as its target T6, DNA repair and recombination protein RAD54-like (Homo sapiens, UniProt Q92698).
T6 sequence (Q92698 whole entry): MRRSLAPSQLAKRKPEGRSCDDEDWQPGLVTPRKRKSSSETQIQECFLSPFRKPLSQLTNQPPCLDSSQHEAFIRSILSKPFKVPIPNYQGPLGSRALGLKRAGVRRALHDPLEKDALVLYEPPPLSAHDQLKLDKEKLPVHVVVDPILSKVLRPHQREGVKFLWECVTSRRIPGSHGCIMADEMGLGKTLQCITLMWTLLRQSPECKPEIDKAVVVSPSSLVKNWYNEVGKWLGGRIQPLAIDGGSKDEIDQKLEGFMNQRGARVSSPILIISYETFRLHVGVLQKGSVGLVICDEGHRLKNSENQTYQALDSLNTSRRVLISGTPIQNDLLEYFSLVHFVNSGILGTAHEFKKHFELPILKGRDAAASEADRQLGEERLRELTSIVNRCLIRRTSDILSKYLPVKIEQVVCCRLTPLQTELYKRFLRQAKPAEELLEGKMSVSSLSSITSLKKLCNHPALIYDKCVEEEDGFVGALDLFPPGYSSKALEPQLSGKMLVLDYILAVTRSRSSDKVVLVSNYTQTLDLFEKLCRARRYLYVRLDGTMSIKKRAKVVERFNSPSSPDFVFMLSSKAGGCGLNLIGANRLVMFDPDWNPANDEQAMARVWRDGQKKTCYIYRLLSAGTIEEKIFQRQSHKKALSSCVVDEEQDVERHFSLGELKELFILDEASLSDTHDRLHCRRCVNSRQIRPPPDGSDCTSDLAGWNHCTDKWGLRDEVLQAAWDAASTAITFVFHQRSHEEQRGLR
Put plainly: RAD54 Holliday junction migration blockers – biochemical, fluorescence, cherry-picked samples, dose series, confirmation (AID 651657). The data set is classed as functional.

Data set [10] addresses SWI/SNF-related matrix-associated actin-dependent regulator of chromatin subfamily A member 2 (Homo sapiens, UniProt P51531). Description: Luminescence-based cell-based high throughput dose response assay to identify activators of the function of SWI/SNF related, matrix associated, actin dependent regulator of chromatin, subfamily a, member 2 (SMARCA2, BRM). The data set is classed as functional.

The nature of data set [11]: Counterscreen for activators of the function of SWI/SNF related, matrix associated, actin dependent regulator of chromatin, subfamily a, member 2 (SMARCA2, BRM): Luminescence-based cell-based high throughput dose response assay to identify non-selective compounds using the VP16 reporter assay. The data set is classed as functional.
For data set [12], the target named is T7, DNA repair protein RAD52 homolog (Homo sapiens, UniProt P43351).
T7 sequence (P43351 whole entry): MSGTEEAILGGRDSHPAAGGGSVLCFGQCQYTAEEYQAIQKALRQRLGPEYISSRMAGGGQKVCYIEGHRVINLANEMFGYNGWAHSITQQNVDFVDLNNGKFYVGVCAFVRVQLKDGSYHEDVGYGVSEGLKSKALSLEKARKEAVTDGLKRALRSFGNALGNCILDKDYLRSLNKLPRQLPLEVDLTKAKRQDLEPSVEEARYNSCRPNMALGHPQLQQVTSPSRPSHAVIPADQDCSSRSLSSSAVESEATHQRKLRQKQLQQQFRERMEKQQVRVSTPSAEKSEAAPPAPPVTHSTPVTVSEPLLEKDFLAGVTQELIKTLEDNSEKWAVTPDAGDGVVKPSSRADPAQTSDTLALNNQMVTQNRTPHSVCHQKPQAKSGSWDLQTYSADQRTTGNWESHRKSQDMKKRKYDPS
The data set is classed as functional, biochemical.

A further data set deals with T8, CAAX prenyl protease 2 (Saccharomyces cerevisiae S288c, UniProt Q03530).
T8 sequence (Q03530 whole entry): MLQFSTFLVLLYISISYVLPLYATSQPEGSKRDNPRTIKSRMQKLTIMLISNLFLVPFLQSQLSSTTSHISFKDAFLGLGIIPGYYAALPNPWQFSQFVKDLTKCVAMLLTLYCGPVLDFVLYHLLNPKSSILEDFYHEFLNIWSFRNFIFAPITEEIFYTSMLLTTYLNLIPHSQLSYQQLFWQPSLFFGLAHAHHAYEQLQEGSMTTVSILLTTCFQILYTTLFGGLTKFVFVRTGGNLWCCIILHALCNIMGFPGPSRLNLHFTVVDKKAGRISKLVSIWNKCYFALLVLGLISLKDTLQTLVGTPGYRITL
The data set is classed as biochemical.

The next data set concerns the target CAAX prenyl protease 1 (Saccharomyces cerevisiae S288c, UniProt P47154). Put plainly: yeast CAAX protease Ste24 inhibition – biochemical, S. cerevisiae, plate reader, cherry-pick, dose response (AID 488815).
Data set [13] addresses T3, Intestinal-type alkaline phosphatase. Description: PubChem AID 488785. The data set is classed as functional.
For data set [14], the target named is FAD-linked sulfhydryl oxidase ALR (Homo sapiens, UniProt P55789). Put plainly: ALR-catalysed DTT oxidation blockers – biochemical, H2O2 detection, luminescence, cherry-pick, dose response (AID 493248).
Sequence of FAD-linked sulfhydryl oxidase ALR (P55789 whole entry): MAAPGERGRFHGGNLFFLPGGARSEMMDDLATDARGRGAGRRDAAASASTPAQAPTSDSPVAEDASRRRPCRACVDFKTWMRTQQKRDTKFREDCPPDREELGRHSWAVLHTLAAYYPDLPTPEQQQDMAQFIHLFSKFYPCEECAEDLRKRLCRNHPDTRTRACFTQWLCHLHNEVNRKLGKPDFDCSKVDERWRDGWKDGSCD
In data set [15] the target is T5, Alkaline phosphatase, tissue-nonspecific isozyme. Description: TNAP enzyme inhibition by screening hits, dose response, selectivity assay for mouse IAP inhibitor project, biochemical, human TNAP, uHTS hits (AID 488906). The data set is classed as functional.
Data set [16] has as its target T4, Intestinal-type alkaline phosphatase. Description: inhibition of human intestinal alkaline phosphatase – biochemical, dose response (AID 488876). The data set is classed as functional.
The next data set addresses Albumin (Bos taurus, UniProt P02769). Put plainly: Counterscreen for inhibitors of T-cell receptor (TCR)-CD3 interaction: Fluorescence-based biochemical high throughput dose response assay to identify inhibitors of T-cell receptor (TCR)-CD3 interaction using a TAMRA-labeled BSA probe. The data set is classed as functional.
The target of data set [17] is T9, Ubiquitin-conjugating enzyme E2 N (Homo sapiens, UniProt P61088).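 Further: Dose-response confirmation in a TR-FRET assay detecting UBC13-driven polyubiquitin chain formation, inhibition measured.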
T9 sequence (P61088 whole entry): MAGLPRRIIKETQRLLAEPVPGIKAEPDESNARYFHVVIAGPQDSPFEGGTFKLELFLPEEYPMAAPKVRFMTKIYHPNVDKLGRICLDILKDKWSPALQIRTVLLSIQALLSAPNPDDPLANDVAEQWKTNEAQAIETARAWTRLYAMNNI
The data set is classed as functional.

In data set [18] the target is Hepatocyte nuclear factor 4-alpha (Homo sapiens, UniProt P41235). The data set is classed as functional, cell-based.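 Further: biochemical luminescence-based dose-response counterscreen measuring inhibition of HNF4 dimerization, run alongside a screen for blockers of ABHD5–perilipin-5 interaction; split luciferase complementation of HNF4 fusion proteins in cell lysate measuring dimerization.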
Sequence of Hepatocyte nuclear factor 4-alpha (P41235 whole entry, the tested form may be a part): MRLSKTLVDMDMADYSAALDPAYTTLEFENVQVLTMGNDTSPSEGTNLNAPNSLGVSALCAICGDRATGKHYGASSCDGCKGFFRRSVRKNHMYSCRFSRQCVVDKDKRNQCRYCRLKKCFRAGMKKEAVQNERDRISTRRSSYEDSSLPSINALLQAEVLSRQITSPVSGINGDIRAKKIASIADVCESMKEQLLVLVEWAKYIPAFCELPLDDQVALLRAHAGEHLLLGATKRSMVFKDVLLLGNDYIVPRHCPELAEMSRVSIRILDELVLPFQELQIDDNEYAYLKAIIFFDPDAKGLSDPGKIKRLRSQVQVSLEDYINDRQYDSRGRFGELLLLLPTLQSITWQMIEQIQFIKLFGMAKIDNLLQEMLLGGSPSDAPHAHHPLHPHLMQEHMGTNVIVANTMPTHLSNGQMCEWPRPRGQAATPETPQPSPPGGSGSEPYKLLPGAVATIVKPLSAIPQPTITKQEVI
A further data set deals with T10, Cytochrome P450 1A2 (Homo sapiens, UniProt P05177).
T10 sequence (P05177 whole entry): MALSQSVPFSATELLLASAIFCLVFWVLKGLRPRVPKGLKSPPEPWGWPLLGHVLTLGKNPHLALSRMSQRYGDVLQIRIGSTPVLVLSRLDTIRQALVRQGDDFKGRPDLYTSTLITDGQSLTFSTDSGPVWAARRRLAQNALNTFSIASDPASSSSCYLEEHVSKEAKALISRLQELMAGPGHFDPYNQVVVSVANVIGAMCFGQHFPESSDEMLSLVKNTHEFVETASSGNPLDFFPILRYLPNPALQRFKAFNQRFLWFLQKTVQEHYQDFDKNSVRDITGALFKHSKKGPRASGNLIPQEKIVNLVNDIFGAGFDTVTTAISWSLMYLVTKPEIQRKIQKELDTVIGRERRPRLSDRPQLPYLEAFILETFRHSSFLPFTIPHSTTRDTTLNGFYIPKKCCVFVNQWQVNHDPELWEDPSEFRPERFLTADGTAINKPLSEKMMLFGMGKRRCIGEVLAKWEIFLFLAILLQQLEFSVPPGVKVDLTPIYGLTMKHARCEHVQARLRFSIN

Active and inactive are the calls of the source.

Our source for the EC50, IC50 and AC50 values is ChEMBL document CHEMBL1201862, “PubChem BioAssay data set” (2004).

T4 sequence (P09923 whole entry): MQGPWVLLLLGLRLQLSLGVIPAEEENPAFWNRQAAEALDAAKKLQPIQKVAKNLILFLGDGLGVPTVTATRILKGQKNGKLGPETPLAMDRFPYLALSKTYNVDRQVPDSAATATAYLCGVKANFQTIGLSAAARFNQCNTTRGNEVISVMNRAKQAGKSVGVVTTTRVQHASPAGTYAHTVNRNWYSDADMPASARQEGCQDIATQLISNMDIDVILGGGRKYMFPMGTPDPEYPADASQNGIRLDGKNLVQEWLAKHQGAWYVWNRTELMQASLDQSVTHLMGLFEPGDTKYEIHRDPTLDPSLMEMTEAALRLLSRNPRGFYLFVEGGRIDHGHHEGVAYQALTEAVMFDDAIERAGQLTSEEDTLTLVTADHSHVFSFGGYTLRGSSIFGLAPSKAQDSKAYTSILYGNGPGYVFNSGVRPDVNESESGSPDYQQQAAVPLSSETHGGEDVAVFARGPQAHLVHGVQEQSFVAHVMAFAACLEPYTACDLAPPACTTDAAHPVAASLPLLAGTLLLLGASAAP
T3 sequence (P24822 whole entry): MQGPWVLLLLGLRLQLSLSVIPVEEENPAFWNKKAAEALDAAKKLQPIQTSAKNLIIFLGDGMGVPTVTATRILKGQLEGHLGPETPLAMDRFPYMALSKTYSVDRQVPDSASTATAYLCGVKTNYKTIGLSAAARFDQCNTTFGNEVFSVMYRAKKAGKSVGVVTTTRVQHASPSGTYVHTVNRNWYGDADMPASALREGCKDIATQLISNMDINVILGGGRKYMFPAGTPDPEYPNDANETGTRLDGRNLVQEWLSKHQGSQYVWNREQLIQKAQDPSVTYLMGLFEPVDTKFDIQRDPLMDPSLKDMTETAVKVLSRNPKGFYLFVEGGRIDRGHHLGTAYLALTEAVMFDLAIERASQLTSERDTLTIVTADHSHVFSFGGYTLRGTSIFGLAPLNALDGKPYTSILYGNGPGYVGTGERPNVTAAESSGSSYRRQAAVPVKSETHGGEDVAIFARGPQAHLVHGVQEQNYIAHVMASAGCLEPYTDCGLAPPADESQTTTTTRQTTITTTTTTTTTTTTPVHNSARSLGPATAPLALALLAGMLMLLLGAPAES
Sequence of Albumin (P02769 whole entry): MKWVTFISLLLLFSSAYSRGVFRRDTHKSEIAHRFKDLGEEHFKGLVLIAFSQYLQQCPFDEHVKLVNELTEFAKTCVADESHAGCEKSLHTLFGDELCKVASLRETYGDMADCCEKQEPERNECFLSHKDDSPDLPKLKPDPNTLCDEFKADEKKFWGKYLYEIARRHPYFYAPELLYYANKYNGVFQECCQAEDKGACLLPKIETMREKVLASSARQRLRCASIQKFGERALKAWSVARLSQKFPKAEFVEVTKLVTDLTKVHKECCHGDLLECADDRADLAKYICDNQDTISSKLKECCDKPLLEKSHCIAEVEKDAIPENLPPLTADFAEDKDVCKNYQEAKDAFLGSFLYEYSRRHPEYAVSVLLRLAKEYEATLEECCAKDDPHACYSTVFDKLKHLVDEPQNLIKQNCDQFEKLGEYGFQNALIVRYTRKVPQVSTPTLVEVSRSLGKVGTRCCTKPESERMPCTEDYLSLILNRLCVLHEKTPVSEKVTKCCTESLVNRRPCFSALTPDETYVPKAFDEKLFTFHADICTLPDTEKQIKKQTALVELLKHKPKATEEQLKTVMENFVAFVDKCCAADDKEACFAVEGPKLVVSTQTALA
Sequence of SWI/SNF-related matrix-associated actin-dependent regulator of chromatin subfamily A member 2 (P51531 whole entry): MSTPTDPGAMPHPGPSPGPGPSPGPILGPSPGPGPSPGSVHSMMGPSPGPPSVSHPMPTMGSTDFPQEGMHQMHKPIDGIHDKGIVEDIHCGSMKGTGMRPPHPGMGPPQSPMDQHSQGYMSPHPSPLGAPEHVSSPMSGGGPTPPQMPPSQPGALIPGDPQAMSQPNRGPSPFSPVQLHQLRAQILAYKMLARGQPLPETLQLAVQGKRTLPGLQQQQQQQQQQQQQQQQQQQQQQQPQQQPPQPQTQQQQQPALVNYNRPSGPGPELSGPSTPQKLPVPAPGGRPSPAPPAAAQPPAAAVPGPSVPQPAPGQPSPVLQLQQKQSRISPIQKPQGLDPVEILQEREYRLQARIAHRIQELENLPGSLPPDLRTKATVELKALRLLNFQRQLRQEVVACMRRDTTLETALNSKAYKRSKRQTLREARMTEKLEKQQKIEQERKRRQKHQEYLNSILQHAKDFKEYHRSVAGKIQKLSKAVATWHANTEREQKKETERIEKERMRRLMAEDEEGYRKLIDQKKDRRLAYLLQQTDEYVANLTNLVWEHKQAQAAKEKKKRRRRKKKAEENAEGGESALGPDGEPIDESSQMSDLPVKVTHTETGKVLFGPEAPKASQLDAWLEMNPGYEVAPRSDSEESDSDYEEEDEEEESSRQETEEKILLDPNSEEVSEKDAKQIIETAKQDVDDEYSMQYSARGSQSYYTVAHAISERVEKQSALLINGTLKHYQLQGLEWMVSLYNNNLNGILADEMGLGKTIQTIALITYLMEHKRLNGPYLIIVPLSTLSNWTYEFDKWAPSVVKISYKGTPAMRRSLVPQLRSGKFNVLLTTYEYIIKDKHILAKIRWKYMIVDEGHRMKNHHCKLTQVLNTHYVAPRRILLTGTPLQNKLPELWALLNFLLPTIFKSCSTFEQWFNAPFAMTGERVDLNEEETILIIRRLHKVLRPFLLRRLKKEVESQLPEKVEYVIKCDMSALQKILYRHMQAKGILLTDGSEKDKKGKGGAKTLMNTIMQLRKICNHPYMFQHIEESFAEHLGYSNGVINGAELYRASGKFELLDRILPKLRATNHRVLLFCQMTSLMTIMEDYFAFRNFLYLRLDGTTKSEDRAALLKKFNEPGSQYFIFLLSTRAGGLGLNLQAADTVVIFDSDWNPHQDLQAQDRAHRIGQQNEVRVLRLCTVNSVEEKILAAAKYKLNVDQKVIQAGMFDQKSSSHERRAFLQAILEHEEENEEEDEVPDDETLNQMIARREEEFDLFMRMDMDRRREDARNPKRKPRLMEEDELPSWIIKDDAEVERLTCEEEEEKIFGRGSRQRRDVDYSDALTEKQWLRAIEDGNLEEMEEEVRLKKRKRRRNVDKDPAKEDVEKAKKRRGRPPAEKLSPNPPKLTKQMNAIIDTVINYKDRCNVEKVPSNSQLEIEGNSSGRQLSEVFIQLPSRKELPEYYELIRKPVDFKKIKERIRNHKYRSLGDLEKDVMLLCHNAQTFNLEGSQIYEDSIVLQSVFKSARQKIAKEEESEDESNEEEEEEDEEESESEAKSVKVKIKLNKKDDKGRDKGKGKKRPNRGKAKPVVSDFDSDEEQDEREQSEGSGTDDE
Sequence of CAAX prenyl protease 1 (P47154 whole entry): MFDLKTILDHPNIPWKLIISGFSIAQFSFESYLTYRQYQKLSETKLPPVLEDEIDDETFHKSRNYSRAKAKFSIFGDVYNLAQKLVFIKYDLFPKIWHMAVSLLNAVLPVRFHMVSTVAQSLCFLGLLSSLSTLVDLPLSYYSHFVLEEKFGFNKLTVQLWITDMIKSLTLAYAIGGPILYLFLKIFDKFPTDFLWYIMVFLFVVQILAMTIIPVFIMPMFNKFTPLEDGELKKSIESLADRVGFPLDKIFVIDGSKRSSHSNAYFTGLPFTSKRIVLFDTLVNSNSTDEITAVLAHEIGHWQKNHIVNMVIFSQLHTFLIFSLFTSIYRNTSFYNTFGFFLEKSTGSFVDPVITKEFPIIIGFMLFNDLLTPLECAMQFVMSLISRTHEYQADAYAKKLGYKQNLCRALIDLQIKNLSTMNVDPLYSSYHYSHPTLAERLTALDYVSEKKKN

In general, EC50 refers to the midpoint of the concentration-response curve. By IC50 is commonly meant the concentration that gives 50% inhibition. For orientation: AC50 means the midpoint of the concentration-response curve, whichever way the signal moves. Turning to `COc1ccc2nc3cc(Cl)ccc3c(Nc3cc(CN4CCCC4)c(O)c(CN4CCCC4)c3)c2n1`, the EC50 in data set [1] is 32.2 µM (active); in [2], 22 µM (active); in [3], 0.587 µM (active); in [4], > 16 µM (not active); in [10] it was > 3.38 µM (active); in [11] it was > 91.2 µM (inactive). The IC50 in data set [5] was 40.5 µM (active); in data set [6], 10.5 µM (active); in [7], 5.61 µM (active); in data set [8], 20.3 µM (active). Further, the AC50 with INS1 is 3.38 µM (active); in data set [9] it was 0.791 µM (active); in data set [12], < 0.351 µM (active).
As to `COc1ccc(-c2cc(C(F)(F)F)nc(SCC(=O)N(C)Cc3cn(C)nc3C)n2)cc1OC`, the AC50 at CAAX prenyl protease 2 is 23.3 µM (active); on CAAX prenyl protease 1, 12.7 µM (active).
As for `O=C(N/N=C/c1cccnc1)c1cc(O)c(O)c(O)c1`, the EC50 in data set [1] is 24.8 µM (active); in data set [2], 4.24 µM (active). Moreover, the IC50 in [13] is 5.77 µM (active); in data set [15], > 100 µM (inactive); in data set [16], > 100 µM (inactive); on Albumin, > 94 µM (inactive). For the same molecule, in [14], the AC50 was < 0.005 µM (active).
Turning to `CN1[C@@H]2CC[C@H]1C[C@@H](OC1c3ccccc3CCc3ccccc31)C2` [DEPTROPINE], the results for the IC50 in [17] and in data set [18] were > 20 µM (inactive) and 10 µM (inactive), respectively. The AC50 entry on Cytochrome P450 1A2 was “inactive”.
